Here are results for 22 molecules from patent publication US20240190904A1, “Heteroaryl compounds as inhibitors of RIP2 kinase, composition and application thereof” (Accro Bioscience (HK) Limited, priority 2021, published 2024).

Counter-ions that a name gives are not always drawn.

In one data set the target is RIP2 kinase (Homo sapiens (Human), UniProt O43353). As to the kind of experiment: Binding affinity assay (Kd). The protocol: For most assays, kinase-tagged T7 phage strains were prepared in an E. coli host derived from the BL21 strain. E. coli were grown to log-phase and infected with T7 phage and incubated with shaking at 32° C. until lysis. The lysates were centrifuged and filtered to remove cell debris. The remaining kinases were produced in HEK-293 cells and subsequently tagged with DNA for qPCR detection. Streptavidin coated magnetic beads were treated with biotinylated small molecule ligands for 30 minutes at room temperature to generate affinity resins for kinase assays. The liganded beads were blocked with excess biotin and washed with blocking buffer (SeaBlock (Pierce), 1% BSA, 0.05% Tween 20, 1 mM DTT) to remove unbound ligand and to reduce non-specific binding. Binding reactions were assembled by combining kinases, liganded affinity beads, and test compounds in 1× binding buffer (20% SeaBlock, 0.17×PBS, 0.05% Tween 20, 6 mM DTT). Test compounds were prepared as 111× stocks in 100% DMSO. Kds were determined using an 11-point 3-fold compound dilution series with three DMSO control points. All compounds for Kd measurements are distributed by acoustic transfer (non-contact dispensing) in 100% DMSO. The compounds were then diluted directly into the assays such that the final concentration of DMSO was 0.9%. All reactions performed in polypropylene 384-well plate. Each was a final volume of 0.02 ml. The assay plates were incubated at room temperature with shaking for 1 hour and the affinity beads were washed with wash buffer (1×PBS, 0.05% Tween 20). The beads were then re-suspended in elution buffer (1×PBS, 0.05% Tween 20, 0.5 μM nonbiotinylated affinity ligand) and incubated at room temperature with shaking for 30 minutes. The kinase concentration in the eluates was measured by qPCR.
An 11-point 3-fold serial dilution of each test compound was prepared in 100% DMSO at 100× final test concentration and subsequently diluted to 1× in the assay (final DMSO concentration=1%). Most Kds were determined using a compound top concentration=30,000 nM. If the initial Kd determined was <0.5 nM (the lowest concentration tested), the measurement was repeated with a serial dilution starting at a lower top concentration.
Binding constants (Kds) were calculated with a standard dose-response curve using the Hill equation: […]
The Hill Slope was set to −1.
Curves were fitted using a non-linear least square fit with the Levenberg-Marquardt algorithm.

The test system of data set [1] is IL-8 in THP-1 induced by MDP. The data set is described as follows: THP-1 cell assay, IL-8 ELISA after MDP. The class given is cell-based. The note with it: for inhibition at 0.01 µM: Homo sapiens, test compounds 10 nM, THP-1, MDP induced. The protocol:
Acute monoblastic and monocytic leukemia (THP-1) was obtained from ATCC (item NO. TIB-202™). The temperature of the sterile incubator is 37˜38° C., the osmotic pressure is 260˜320 mmol/L, the pH range is 7.2˜7.4, and the ratio of carbon dioxide gas is 5%.
Cells were seeded in 96-well plates. After an hour, cells were incubated with test compounds for 2 hours. MDP (10 μL) was added and incubated for 6 hours. The samples were centrifuged (3000 rmp/min) for 5 minutes. The concentration of IL-8 in the supernatants was detected by IL-8 ELISA.
(In an ELISA, binding on a coated surface is turned into a signal by an enzyme label.)

Data set [2] is described as follows: Protein binding test (dialysis), dog. The data set is classed as in vitro ADME. How it is done: (§1) • 1. Spiking Solutions of Test and Reference Compounds • 1.1 Solution A (0.5 mM): Add 10 μL of 10 mM stock solution into 190 μL of DMSO. • 1.2 Solution B (0.02 mM): Add 8 μL of Solution A into 192 μL of 0.05 M sodium phosphate buffer. The final DMSO concentration in Solution B is 4%. • 2. Preparation of Test and Reference Compounds • 2.1 Preload a 96-well plate with 380 μL aliquots of plasma in the wells designated for plasma and buffer, respectively. • 2.2 Spike 20 μL of Solution B (0.02 mM of test and reference compounds) into the pre-loaded plasma in the 96-well plate. The final test concentration is 1 μM containing 0.2% DMSO. • 3. Dialysis Sample Loading • 3.1 Preparing plasma against buffer system (duplicate): Apply aliquots of 100 μL of blank dialysis buffer to the receiver side of dialysis chambers. Then apply aliquots of 100 μL of the plasma spiked with test and reference compounds to the donor side of the dialysis chambers. • 3.2 Preparing T0 plasma samples for initial concentrations (duplicate): • 3.2.1 Aliquot 25 μL of the plasma spiked with test and reference compounds into a 96-well sample preparation plate as T0 plasma samples • 3.2.2 Mix the aliquots with same volume of blank buffer (50:50, v/v). • 3.2.3 Quench the samples with 200 μL of acetonitrile containing internal standard (IS). • 3.3 Cover the dialysis block with a plastic lid and place the entire apparatus in a shaker (60 rpm) for 5 hours at 37° C. • 3.4 Preparing dialyzed samples after 5-hour incubation: • 3.4.1 Aliquot 25 μL from both the donor sides and receiver sides of the dialysis apparatus into new sample preparation plates and mix the aliquots with same volume of opposite matrixes (blank buffer to plasma and vice versa). • 3.4.2 Quench the samples with 200 μL acetonitrile containing internal standard (IS). Vortex all the samples (from 0 h and 5 h) at 600 rpm for 10 min followed by centrifugation at 5594 g for 15 minutes (ThermoMultifuge×3R). • 3.4.3 Transfer 50 μL of the supernatants to a new 96-well plate and mix the samples with 50 μL of Milli-Q water. Cover the sample plate and store it in a freezer (−20° C.) until LC/MS/MS analysis.

Data set [3] can be described thus: Protein binding test (dialysis), rat. The class given is in vitro ADME. How it is done:
as §1

A short description of data set [4]: Pharmacokinetic evaluation in mice. The class given is in vivo. The protocol: The mice pharmacokinetic characteristics of compounds were tested by standard protocols. The candidate compounds were made into clear solution for single intravenous injection (i.v.) and suspension for oral administration (p.o.). Intravenous vehicle is 5% DMSO+95% Saline while oral vehicle is 0.5% CMCNa. The experiment used 48 male mice and 24 mice for intravenous at a dose of 2 mg/kg. Plasma samples were collected at 0 h (before dosing) and 0.083 h, 0.25 h, 0.5 h, 1 h, 2 h, 4 h, 8 h, 24 h after dosing. Another 24 mice were orally administrated with a dose of 10 mg/kg. Plasma samples were collected at 0 h (before dosing) and 0.25 h, 0.5 h, 1 h, 2 h, 4 h, 6 h, 8 h, 24 h after dosing.
Blood samples were placed in tubes containing K2-EDTA and stored on ice until centrifuged. The blood samples were centrifuged at 6800 g for 6 minutes at 2-8° C. within 1 h after collected and stored frozen at approximately −80° C.
The analytical results were confirmed using quality control samples for intra-assay variation. The accuracy of >66.7% of the quality control samples and 50% of all QC samples at each concentration level were between 80-120% of the known value(s).
Standard set of parameters including Area Under the Curve (AUC(0-t) and AUC(0-∞)), elimination half-live (T1/2), maximum plasma concentration (Cmax), time to reach maximum plasma concentration (Tmax) were calculated using noncompartmental analysis modules in FDA certified pharmacokinetic program Phoenix WinNonlin 7.0 (Pharsight, USA) by the Study Director.

Data set [5] is described as follows: Protein binding test (dialysis), human. The class given is in vitro ADME. The protocol:
as §1

Where [6] appears, read: male, mouse, plasma, iv, i.v. 2 mg/kg.
The mark [7] stands for this setting: male, mouse, plasma, po, p.o. 10 mg/kg.

Sequence of RIP2 kinase (O43353 whole entry): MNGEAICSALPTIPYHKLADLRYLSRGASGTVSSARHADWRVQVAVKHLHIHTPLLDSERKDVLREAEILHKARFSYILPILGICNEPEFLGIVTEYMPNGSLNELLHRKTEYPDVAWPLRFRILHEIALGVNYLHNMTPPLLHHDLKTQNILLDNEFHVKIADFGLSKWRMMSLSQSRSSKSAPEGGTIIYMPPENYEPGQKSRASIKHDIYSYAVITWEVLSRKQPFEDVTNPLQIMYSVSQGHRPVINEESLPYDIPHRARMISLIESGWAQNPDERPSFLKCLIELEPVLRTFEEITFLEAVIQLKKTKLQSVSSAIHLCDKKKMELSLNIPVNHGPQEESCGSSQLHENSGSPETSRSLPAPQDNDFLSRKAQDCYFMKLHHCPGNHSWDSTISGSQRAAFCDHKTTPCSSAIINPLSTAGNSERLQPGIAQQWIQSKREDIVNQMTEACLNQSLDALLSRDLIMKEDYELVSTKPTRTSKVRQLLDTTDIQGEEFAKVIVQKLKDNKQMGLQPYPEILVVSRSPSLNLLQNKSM

The Kd is the equilibrium constant for the complex coming apart. Low values mean tighter binding, high ones weaker binding. The molecule `CP(C)(=O)c1ccc2nccc(Nc3ccc4scnc4c3)c2c1` [A1, (4-(benzo[d]thiazol-5-ylamino)quinolin-6-yl)dimethylphosphine oxide hydrochloride] had a Kd at RIP2 kinase of 28 nM.

On RIP2 kinase, `Cc1ccc(O)cc1Nc1ccnc2ccc(P(C)(C)=O)cc12` [A2] yielded a Kd of 89 nM.

Molecule `CP(C)(=O)c1ccc2nccc(Nc3n[nH]c4ccc(F)cc34)c2c1` [A3] came in with a Kd on RIP2 kinase of 430 nM.

With `Cc1[nH]nc(Nc2ccnc3ccc(P(C)(C)=O)cc23)c1C` [A4], the Kd on RIP2 kinase came to 89 nM.

On RIP2 kinase, `CP(C)(=O)c1ccc2nccc(Nc3cc(O)ccc3F)c2c1` [A5] yielded a Kd of 120 nM.

Broadly, the inhibition is the percentage by which the read-out fell short of the control. At RIP2 kinase, `CP(C)(=O)c1cc2c(Nc3ccc4scnc4c3)ccnc2cc1OC1CCOC1` (centres unmarked) [A10] displayed a Kd of 1.8 nM. Moreover, the inhibition at 0.01 µM in data set [1] stood at 51%.

`Cn1cc(-c2cc3nccc(Nc4ccc5scnc5c4)c3cc2P(C)(C)=O)cn1` [A11, (4-(benzo[d]thiazol-5-ylamino)-7-(1-methyl-1H-pyrazol-4-yl)quinolin-6-yl)dimethylphosphine oxide]: on RIP2 kinase, the affinity, expressed as Kd, was 3 nM. Also, in data set [1], the inhibition at 0.01 µM was 37%.

The molecule `CP(C)(=O)c1cc2c(Nc3ccc4scnc4c3)ccnc2cc1-c1cc[nH]n1` [A12] had a Kd at RIP2 kinase of 2.3 nM.

Consider `CP(C)(=O)c1cc2c(Nc3ccc4scnc4c3)ccnc2cc1-c1cn[nH]c1` [A17], for which, in data set [1], 0.01 µM produced 11% inhibition.

In turn, `CP(C)(=O)c1cc2c(Nc3ccc4scnc4c3)ccnc2cc1OC[C@@H](O)CO` [A18, (S)-(4-(benzo[d]thiazol-5-ylamino)-7-(2,3-dihydroxypropoxy)quinolin-6-yl)dimethylphosphine oxide] showed an inhibition at 0.01 µM in data set [1] of 12%.

`CP(C)(=O)c1cc2c(Nc3ccc4scnc4c3)ccnc2cc1OC[C@H](O)CO` [A19]: the inhibition at 0.01 µM in data set [1] was found to be 13%.

At RIP2 kinase, `CP(C)(=O)c1cc2c(Nc3ccc4scnc4c3)ccnc2cc1F` [A20] had a Kd of 8.7 nM.

In turn, `CP(C)(=O)c1cc2c(Nc3ccc4scnc4c3)ccnc2cc1OC1CCC1` [A21] yielded a Kd at RIP2 kinase of 1.5 nM.

For the molecule `[2H]C([2H])([2H])Oc1cc2nccc(Nc3ccc4scnc4c3)c2cc1P(C)(C)=O` [A22], testing at 0.01 µM in data set [1] gave an inhibition of 60%.

For `COc1cc2ncc(F)c(Nc3ccc4scnc4c3)c2cc1P(C)(C)=O` [A23, (4-(benzo[d]thiazol-5-ylamino)-3-fluoro-7-methoxyquinolin-6-yl)dimethylphosphine oxide], at 0.01 µM the inhibition in data set [1] was 5%.

As a reminder, the fraction unbound is the share of the substance not bound to proteins or other matrix. Higher therefore signals much free substance. In general, AUC refers to the area under the concentration-time curve, a measure of exposure. Low readings indicate less exposure, high ones more exposure. One may read the Vd as a proportionality between amount in the body and measured concentration, not a real space. A lower Vd goes with confinement near the circulation. As a reminder, the clearance is a measure of how efficiently the substance is removed, as volume per time. The low end stands for inefficient removal, the high end for efficient removal. What is called half-life is the time needed for the level to fall by half in the phase considered. Read a low half-life as fast loss. For orientation: Cmax means the maximum level reached in the sampled fluid or tissue. Broadly, the Tmax is the time at which the peak concentration occurs. As to `CP(C)(=O)c1cc2c(Nc3ccc4scnc4c3)ccnc2cc1OC(F)F` [A25], the “protein binding in dog (in words)” value in data set [2] (dog) is reported as “moderate”. In addition, the fraction unbound at 5 h, 1 μM in data set [2] (dog plasma, 1 μM) was 0.05. Besides, on RIP2 kinase, the Kd stood at 6.4 nM. For the same molecule, in data set [3] (rat), the “protein binding in rat (in words)” value was “high protein binding”. The molecule also gave a fraction unbound at 5 h, 1 μM in data set [3] (rat plasma, 1 μM) of 0.006. Further, in data set [4], the “plasma exposure and bioavailability in mice (in words)” value was “excellent plasma exposure and bioavailability”. For the same molecule, in data set [4] (setting [6]), the AUC worked out at 6510 ng·h/mL, the Vd worked out at 0.59 L/kg, the clearance amounted to 4.3 mL/min/kg and the half-life is 1.6 h. Also, in data set [4] (setting [7]), the AUC amounted to 68300 ng·h/mL, the Cmax was found to be 19200 ng/mL and the Tmax worked out at 0.7 h. The molecule further returned a F in data set [4] (p.o. 10 mg/kg) of 210%. Moreover, the “protein binding in human (in words)” value in data set [5] (human) is reported as “moderate”. For the same molecule, the fraction unbound at 5 h, 1 μM in data set [5] (human plasma, 1 μM) is 0.032.

Take `CP(C)(=O)c1cc2c(Nc3ccc4scnc4c3)ccnc2cc1C1COC1` [A26, (4-(benzo[d]thiazol-5-ylamino)-7-(oxetan-3-yl)quinolin-6-yl)dimethylphosphine oxide]: on RIP2 kinase, the Kd was 12 nM.

In data set [1], `Cc1noc(C)c1-c1cc2nccc(Nc3ccc4scnc4c3)c2cc1P(C)(C)=O` [A27] had an inhibition at 0.01 µM of 37%.

In turn, `COc1cc2nccc(Nc3ccc4scnc4c3F)c2cc1P(C)(C)=O` [A28] yielded an inhibition at 0.01 µM in data set [1] of 63%.

Turning to `CP(C)(=O)c1cc2c(Nc3ccc4scnc4c3F)ccnc2cc1OC1COC1` [A29], in data set [1], at 0.01 µM the inhibition was 85%.

Regarding `CP(C)(=O)c1cnc2nccc(Nc3ccc4scnc4c3)c2c1` [B1, (5-(benzo[d]thiazol-5-ylamino)-1,8-naphthyridin-3-yl)dimethylphosphine oxide], at RIP2 kinase, the Kd amounted to 3200 nM and the “affinity with RIP2 kinase (in words)” value is recorded as “low affinity”.

For the molecule `COc1cc2nncc(Nc3ccc4scnc4c3)c2cc1P(C)(C)=O` [B2, (4-(benzo[d]thiazol-5-ylamino)-7-methoxycinnolin-6-yl)dimethylphosphine oxide], the “inhibition of IL-8 in THP-1 induced by MDP (in words)” value in data set [1] (10 nM) is on record as “no effect”. Moreover, testing at 0.01 µM in data set [1] gave an inhibition of 0%.
